From patent US10143678B1, “Method of treatment of preventing hyperglycemia complications” (Sunway Biotech Co., LTD, priority 2015, dated 2018) come the findings set out here.

Marks after values point to notes of the source that are not given here.

What all share (format): in vivo
For assay [1], the system named is SD rats fed with high fat and fructose diet. As to the kind of experiment: Liver, kidney and adipose tissue weight after sacrifice. Conditions: HFFD-fed SD rats, oral 10 weeks. From the text:
(§1) The present invention provides a method of treatment of preventing hyperglycemia complications using at least one pharmaceutical made from a red mold product, wherein the red mold product is a red mold rice or a red mold Dioscorea, and the pharmaceutical is an extract obtained from the red mold product. The extract is Monascin, Ankaflavin, or a combination of Monascin and Ankaflavin. […] Moreover, in order to verify the practicability of the method of treatment of preventing hyperglycemia complications proposed by the present invention, a particularly-arranged of animal experiment is completed by inventors. After 1-week pre-feeding, several SD rats are divided into 9 experimental groups for carrying out 10-week animal experiment.
Insulin is used for impelling the absorption and utilization of blood glucose in liver, muscle and adipose tissue. Because white adipose tissue (WAT) is used for storing triglycerides (TG) transformed from blood glucose, a large amount of accumulation of adipocytes would cause the occurrence of inflammatory response so as to induce lipolysis action. Therefore, the inflammatory-induced lipolysis action would produce a large amount of glycerin and free fatty acid (FFA), so as to aggravate the production of Hyperglycemia, fatty liver, and high blood ketone. Based on above reasons, the effects provided by the different test samples on liver, kidney, and adipose tissue weight of the rats are needed to be determined.
For carrying out the determination of liver, kidney, and adipose tissue weight, it needs to sacrifice the rats. After sacrificing the rat, blood to be determined is collected from the intraperitoneal of the rat by using syringes, and then the collected blood are disposed into a 2-mL microcentrifuge tube. After staying for 5 minutes, the microcentrifuge tube carrying with blood is treated with a centrifugation process, and then the serum of the blood is stored in an environment with −20° C. After that, the liver, kidney, and adipose tissue are taken out of the rat.

The next assay deals with HIF-1α. The assay is described as follows: HIF-1α expression in adipose tissue. Conditions: FIG. 10, vs HFFD group; HFFD-fed SD rats, oral 10 weeks; 1-fold dose mg/kg bw/day: MF 78.06, RMD 104.17, Monascin 0.31 (MS1X), Ankaflavin 0.16 (AK1X), MS-AK 0.31 + 0.16.
Text: as §1

Another assay has as its system GLUT-4. The assay is described as follows: GLUT-4 expression in adipose tissue. Conditions: FIG. 7, vs HFFD group; HFFD-fed SD rats, oral 10 weeks; 1-fold dose mg/kg bw/day: MF 78.06, RMD 104.17, Monascin 0.31 (MS1X), Ankaflavin 0.16 (AK1X), MS-AK 0.31 + 0.16.
Text: as §1

Assay [2] deals with Reactive Oxygen Species (ROS). The assay is described as follows: ROS concentration in liver. The following applies: FIG. 4, vs HFFD group; HFFD-fed SD rats, oral 10 weeks; 1-fold dose mg/kg bw/day: MF 78.06, RMD 104.17, Monascin 0.31 (MS1X), Ankaflavin 0.16 (AK1X), MS-AK 0.31 + 0.16.
Text: as §1

Another assay has as its system IL-1β. The assay is described as follows: IL-1β expression in adipose tissue. The following applies: FIG. 9, vs HFFD group; HFFD-fed SD rats, oral 10 weeks; 1-fold dose mg/kg bw/day: MF 78.06, RMD 104.17, Monascin 0.31 (MS1X), Ankaflavin 0.16 (AK1X), MS-AK 0.31 + 0.16.
Text: as §1
(§2) Please refer to FIG. 8 and FIG. 9, where a statistical bar graph of IL-6 expression in adipose tissue and a statistical bar graph of IL-1β expression in adipose tissue are provided.

A further assay relates to TNF-α. The assay is described as follows: TNF-α expression in adipose tissue. Conditions: FIG. 5, vs HFFD group; HFFD-fed SD rats, oral 10 weeks; 1-fold dose mg/kg bw/day: MF 78.06, RMD 104.17, Monascin 0.31 (MS1X), Ankaflavin 0.16 (AK1X), MS-AK 0.31 + 0.16.
Text: as §1

Another assay has as its system IL-6. As to the kind of experiment: IL-6 expression in adipose tissue. The following applies: FIG. 8, vs HFFD group; HFFD-fed SD rats, oral 10 weeks; 1-fold dose mg/kg bw/day: MF 78.06, RMD 104.17, Monascin 0.31 (MS1X), Ankaflavin 0.16 (AK1X), MS-AK 0.31 + 0.16.
Text: as §1, §2

Another assay relates to adiponectin. As to the kind of experiment: Adiponectin expression in adipose tissue. Conditions: FIG. 3, vs HFFD group; HFFD-fed SD rats, oral 10 weeks; 1-fold dose mg/kg bw/day: MF 78.06, RMD 104.17, Monascin 0.31 (MS1X), Ankaflavin 0.16 (AK1X), MS-AK 0.31 + 0.16.
Text: as §1

Another assay has as its system GLUT-2. The assay is described as follows: GLUT-2 expression in adipose tissue. The following applies: FIG. 6, vs HFFD group; HFFD-fed SD rats, oral 10 weeks; 1-fold dose mg/kg bw/day: MF 78.06, RMD 104.17, Monascin 0.31 (MS1X), Ankaflavin 0.16 (AK1X), MS-AK 0.31 + 0.16.
Text: as §1

The test system of assay [3] is SD rats fed with high fat and fructose diet. The assay is described as follows: Oral glucose tolerance test (OGTT), AUC of blood glucose. The following applies: FIG. 2, vs HFFD group, oral 10 weeks, 1-fold dose mg/kg bw/day: MF 78.06, RMD 104.17, Monascin 0.31 (MS1X), Ankaflavin 0.16 (AK1X), MS-AK 0.31 + 0.16.
Text: as §1

The test system is the same in assay [4]. As to the kind of experiment: Histomorphology of liver slices (fatty liver). Conditions: FIG. 11, vs HFFD group, oral 10 weeks, 1-fold dose mg/kg bw/day: MF 78.06, RMD 104.17, Monascin 0.31 (MS1X), Ankaflavin 0.16 (AK1X), MS-AK 0.31 + 0.16.
Text: as §1

Setting [5] is: 1-fold dose mg/kg bw/day: MF 78.06, RMD 104.17, Monascin 0.31 (MS1X), Ankaflavin 0.16 (AK1X), MS-AK 0.31 + 0.16.
Where [6] appears, read: 5-fold dose mg/kg bw/day: Monascin 1.56 (MS5X), Ankaflavin 0.78 (AK5X).

Consider `C/C=C/C1=CC2=C(CO1)C(=O)[C@]1(C)OC(=O)[C@H](C(=O)CCCCCCC)[C@H]1C2` [Ankaflavin], for which, in assay [1] (setting [5]), the Kidney weight is 3.72 ± 0.31^ab; the “Occupying percentage of summation of the weights of peri-adrenal and epididymal adipose tissue in body Fat” value (shortened to “Occupying percentage”) was 4.32 ± 0.59^b %. Also, in assay [1] (setting [6]), the Kidney weight is 3.55 ± 0.29^ab; the “Occupying percentage” value was 4.30 ± 0.53^b %.

For `CN(C)C(=N)N=C(N)N` [MF, Metformin], the “percentage of HIF-1α expression in adipose tissue” value in the assay on HIF-1α is “largely lowered”. Besides, the “percentage of GLUT-4 expression in adipose tissue” value in the assay with GLUT-4 is recorded as “largely enhanced”. Further, the “ROS level in liver” value in [2] is “largely lowered”. Besides, in the assay with IL-1β, the “percentage of IL-1β expression in adipose tissue” value was “largely lowered”. Besides, the “percentage of TNF-α expression in adipose tissue” value with TNF-α is “largely reduced”. In addition, in the assay on IL-6, the “percentage of IL-6 expression in adipose tissue” value is “largely lowered”. Further, the “percentage of adiponectin expression in adipose tissue” value in the assay with adiponectin was “largely enhanced”. The “percentage of GLUT-2 expression in adipose tissue” value in the assay with GLUT-2 is listed as “largely enhanced”. Further, the “AUC (area under curve) of blood glucose” value in assay [3] was “obviously lower”. In addition, the “formation of fatty liver” value in assay [4] is reported as “alleviated or solved”. In addition, in assay [1] (setting [5]), the Kidney weight is 3.64 ± 0.26^ab; the “Occupying percentage” value is on record as 4.27 ± 1.43^bc %.

Regarding `C/C=C/C1=CC2=C(CO1)C(=O)[C@]1(C)OC(=O)[C@H](C(=O)CCCCC)[C@H]1C2` [Monascin], the figures for the Kidney weight in assay [1] (setting [5]) and in [1] (setting [6]) were 3.61 ± 0.20^ab and 3.71 ± 0.40^ab, respectively. For the same compound, the entries for the “Occupying percentage” value in assay [1] (setting [5]) and in [1] (setting [6]) were 5.12 ± 0.84^bc % and 4.97 ± 0.80^bc %, respectively.
